From PubChem BioAssay AID493003 (Sanford-Burnham Center for Chemical Genomics, 2010)
The source made the active and inactive calls. The rule behind the calls is not given here.

Tested on: S. cerevisiae tim10-1 mutant growth, luminescence
Assay: growth inhibitors of tim10-1 mutant yeast, dose response, luminescence, S. cerevisiae, uHTS hits (AID 493003);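 note: yeast growth measured after about 22 hours at 25 °C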

Which IC50 does the source give for CN1/C(=C\C(=O)Nc2ccc(Br)cc2)C(C)(C)c2ccccc21 here?
Its IC50 is 38.7 µM.

For O=C(Nc1ccc(F)cc1)c1cccc2c1C(=O)N(Cc1ccccn1)C2, which IC50 is on record?
The IC50 was 18 µM.

For C=CCNc1nc(-c2ccccn2)nnc1-c1ccccc1, which IC50 is on record?
Its IC50 is 29.3 µM.

With N#C/C(=C/c1ccc(N2CCCCCC2)o1)c1cccc(F)c1 as the compound, how does the IC50 read?
Its IC50 is 14.9 µM.

How did the IC50 turn out when Cc1ccc(Nc2nc(Cl)nc(N(C)C#N)n2)cc1 was run?
Its IC50 is 25.1 µM.

For C=CCN(CC=C)S(=O)(=O)c1ccc(NC(=O)COc2ccccc2OC)cc1, which IC50 is on record?
Its IC50 is 77.3 µM.

How did the IC50 turn out when O=C(c1ccc2c(c1)OCCO2)N1CCN(c2ncc(C(F)(F)F)cc2Cl)CC1 was run?
Its IC50 is 68.8 µM.

N/C(=N\OC(=O)CCC1CCCC1)c1cccc([N+](=O)[O-])c1 was tested. Which IC50 did it give?
The IC50 was 6.48 µM.

CN1CCN(c2cc(N3CCc4ccccc4C3)c(F)cc2[N+](=O)[O-])CC1 was tested. Which IC50 did it give?
Its IC50 is 71.6 µM.

For O=C(Nc1cccc(Cl)c1)N1N=CCC1c1ccccc1 (stereo not given), which IC50 is on record?
Its IC50 is 29.6 µM.

With O=C(c1ccco1)N1CCN(c2ncnc3scc(-c4ccccc4)c23)CC1 as the compound, how does the IC50 read?
The IC50 was 17.7 µM.

C=CCn1c(N)c(C(=O)Nc2cccc(C)c2)c2nc3ccccc3nc21 was tested. Which IC50 did it give?
The IC50 was 17 µM.

Which IC50 does the source give for O=c1cc(-c2ccc(C3CCCCC3)cc2)[nH][nH]1 here?
Its IC50 is 29.5 µM.

Which IC50 does the source give for COc1ccc(-n2c(CNc3ccc(C)cc3)nnc2SCc2ccccc2)cc1 here?
The IC50 was 26.4 µM.

Cc1sc2ncnc(N3CCN(CCOc4ccc(Cl)cc4)CC3)c2c1C was tested. Which IC50 did it give?
Its IC50 is 38.2 µM.

With N=C(N)c1ccc(/C=C/c2ccc(C(=N)N)cc2O)cc1 as the compound, how does the IC50 read?
Its IC50 is 10.6 µM.

For CN(CCc1ccccn1)C1CC(=O)N(c2ccc(Cl)cc2)C1=O (stereo not given), which IC50 is on record?
The IC50 was 24.7 µM.

For O=C(Nc1ccc(N2CCN(C(=O)c3ccccc3F)CC2)cc1)c1cncc(Br)c1, which IC50 is on record?
The IC50 was 41.3 µM.

Which IC50 does the source give for O=C(/C=C/c1ccccc1)CC(O)(c1ccccc1)C(F)(F)C(F)F (stereo not given) here?
Its IC50 is 16.3 µM.

Which IC50 does the source give for Clc1ccccc1OCc1nnc(-c2ccccc2Br)o1 here?
Its IC50 is 27.9 µM.

For COc1ccc2[nH]c3c(=O)n4c(nc3c2c1)SCCC4, which IC50 is on record?
The IC50 was 40.7 µM.

For N/C(=N\OC(=O)CCCc1ccccc1)c1ccccc1Cl, which IC50 is on record?
Its IC50 is 16.4 µM.

With CN1C(=O)C(O)(CC(=O)c2cccc(-n3cccc3)c2)c2ccccc21 (stereo not given) as the compound, how does the IC50 read?
The IC50 was 40 µM.

How did the IC50 turn out when Cc1sc2ncnc(Oc3ccc(-n4ccnc4)cc3)c2c1C was run?
The IC50 was 46 µM.

Cc1cccc2nc(COc3ccc(Cl)c4cccnc34)cn12 was tested. Which IC50 did it give?
Its IC50 is 44.7 µM.

With CCOC(=O)C1CCN(C2CC(=O)N(c3cccc(Cl)c3)C2=O)CC1 (stereo not given) as the compound, how does the IC50 read?
The IC50 was 37.2 µM.

S=C1NC(c2cccs2)=CC(c2ccc(Br)cc2)N1 (stereo not given) was tested. Which IC50 did it give?
Its IC50 is 18.1 µM.

Which IC50 does the source give for C=CCc1c(C)nc(-c2ccccc2)nc1N/N=C/c1ccccc1 here?
The IC50 was 26.2 µM.

O=C(CSCc1ccccc1Cl)NNC(=S)Nc1ccccc1 was tested. Which IC50 did it give?
Its IC50 is 33 µM.

For FC(F)(F)c1ccc(NC(=S)NC2CCCCC2)cc1, which IC50 is on record?
Its IC50 is 27.7 µM.

With COc1ccc(Cl)cc1NC(=S)NCCSc1ccc(C)cc1 as the compound, how does the IC50 read?
The IC50 was 17.6 µM.

How did the IC50 turn out when Oc1ccc(-c2nccc(-c3ccc(Cl)cc3)n2)cc1 was run?
Its IC50 is 24.6 µM.

For Cc1cc(N(CCO)CCO)ccc1N=Nc1cc(F)ccc1F, which IC50 is on record?
Its IC50 is 26.1 µM.

Which IC50 does the source give for Cn1c(Cl)cnc1C1CC(=O)c2cc(Cl)ccc2O1 (stereo not given) here?
Its IC50 is 8.24 µM.

Which IC50 does the source give for CCOC(=O)c1cc(-c2cccs2)nc2c1c(C)nn2-c1ccccn1 here?
The IC50 was 11 µM.

For Cc1sc(NC(=O)c2ccco2)c(C(c2cccnc2)N2CCCC2)c1C (stereo not given), which IC50 is on record?
Its IC50 is 17.2 µM.

With Cc1cc(Br)c(Cl)cc1NC(=O)CN1C(=O)C2C3CC(c4ccccc4)C(C3)C2C1=O (stereo not given) as the compound, how does the IC50 read?
Its IC50 is 27.1 µM.

Which IC50 does the source give for O=C(c1ccc2nc(N3CCCCC3)sc2c1)N1CCN(c2ccccn2)CC1 here?
Its IC50 is 46.1 µM.

O=c1c2ccccc2[se]n1-c1ccccc1 was tested. Which IC50 did it give?
The IC50 was 10 µM.

For C/C(CC(=O)Nc1ccc(N(C)C)cc1)=N\NC(=O)c1ccccn1, which IC50 is on record?
The IC50 was 54.5 µM.

For COc1ccc(-c2cc(C3CCN(C(=O)OC(C)(C)C)CC3)[nH]n2)cc1, which IC50 is on record?
Its IC50 is 51.2 µM.

C[C@@]12CCC=C[C@H]1[C@H](c1ccc3ccccc3c1)N(Cc1ccccc1)C2=O was tested. Which IC50 did it give?
Its IC50 is 22.2 µM.

C/C(=N\O)c1cc(Cl)cc(Cl)c1O was tested. Which IC50 did it give?
The IC50 was 15 µM.

N/C(=N\OC(=O)CCCc1ccccc1)c1ccccc1 was tested. Which IC50 did it give?
The IC50 was 19.9 µM.

Which IC50 does the source give for CN1CCCN(C(c2ccccc2)c2ccc(Cl)cc2)CC1 (stereo not given) here?
Its IC50 is 30.9 µM.

How did the IC50 turn out when CCCCCCCCCCOC(=O)Cn1c(COc2ccccc2OC)[n+](C)c2ccccc21 was run?
Its IC50 is 10.9 µM.

COC(=O)c1c(N2C(=O)CC(Sc3ccccc3C(=O)O)C2=O)sc2c1CCCC2 (stereo not given) was tested. Which IC50 did it give?
The IC50 was 12.2 µM.

CNC(=O)c1ccsc1NC(=O)c1ccc(Cl)s1 was tested. Which IC50 did it give?
The IC50 was 64.7 µM.

How did the IC50 turn out when N/C(=N\OC(=O)CCC1CCCCC1)c1ccccn1 was run?
Its IC50 is 26.8 µM.

For O=S(=O)(CCN(CCS(=O)(=O)C(F)(F)F)CC1CCCO1)C(F)(F)F (stereo not given), which IC50 is on record?
The IC50 was 7.82 µM.

For Cn1c(NCc2c(O)ccc3ccccc23)nc2ccccc21, which IC50 is on record?
The IC50 was > 100 µM (inactive).

With CC1=CC(C)(C)N2C(=O)C(=O)c3cc(OC(=O)c4ccco4)cc1c32 as the compound, how does the IC50 read?
Its IC50 is 33.4 µM.

For CC1=CC(=O)C=C(C)C1=NOC(=O)/C=C\c1ccccc1, which IC50 is on record?
Its IC50 is 42.4 µM.

Which IC50 does the source give for CCCCC(CC)C(=O)Nc1ncc([N+](=O)[O-])s1 (stereo not given) here?
Its IC50 is 19.3 µM.

For Cc1nc2ccc(Nc3nc4cc(S(=O)(=O)N5CCOCC5)ccc4o3)cc2s1, which IC50 is on record?
The IC50 was 19.4 µM.

Which IC50 does the source give for CCOC(=O)/C=C/C(=O)Nc1cccc([N+](=O)[O-])c1 here?
Its IC50 is 7.03 µM.

Which IC50 does the source give for CO/N=C/c1ccc(Sc2ccccc2N)c([N+](=O)[O-])c1 here?
Its IC50 is 56.4 µM.

For NC(=O)C1CCN(C2CC(=O)N(c3ccc(F)c(Cl)c3)C2=O)CC1 (stereo not given), which IC50 is on record?
The IC50 was 21.3 µM.

CN(c1ccccc1)C1CCCCC1NS(=O)(=O)c1ccc(Cl)cc1 (stereo not given) was tested. Which IC50 did it give?
Its IC50 is 65.4 µM.

For O=C1CS(=O)(=O)N(Cc2cccc(F)c2)c2ccc(Br)cc21, which IC50 is on record?
The IC50 was 5.54 µM.

With O=C(c1ccc2nc(N3CCOCC3)sc2c1)N1CCC(Cc2ccccc2)CC1 as the compound, how does the IC50 read?
The IC50 was 16.6 µM.

Which IC50 does the source give for COc1ccc(/C(N)=N/OC(=O)c2ccc3c(c2)OCO3)cc1 here?
Its IC50 is 14.9 µM.

With Cc1cc(C)cc(N2C(=O)CC(Sc3nnnn3-c3ccccc3)C2=O)c1 (stereo not given) as the compound, how does the IC50 read?
The IC50 was 13.6 µM.

With C=CCN1C(=O)C(O)(CC(=O)c2ccc(-n3cccc3)cc2)c2ccccc21 (stereo not given) as the compound, how does the IC50 read?
Its IC50 is 24.1 µM.

With COc1ccc(Cl)cc1NC(=S)NCCc1ccc(F)cc1 as the compound, how does the IC50 read?
The IC50 was 7.09 µM.

How did the IC50 turn out when Cc1csc(NC(=O)c2nc(-c3ccccc3)n(-c3ccccc3)n2)n1 was run?
Its IC50 is 31.7 µM.

Which IC50 does the source give for Fc1ccccc1CNc1cc(Cl)cc(Cl)c1 here?
Its IC50 is 26 µM.

How did the IC50 turn out when CCOC(=O)c1c(OCC)[nH]c2c1cc(O)c1ccccc12 was run?
The IC50 was 17.9 µM.

How did the IC50 turn out when Cc1cc(C)n(-c2nc(-n3nc(C)cc3C)c3c4c(sc3n2)COC(C)(C)C4)n1 was run?
The IC50 was 19.1 µM.

C=CCc1ccc(O)c(-c2cc(CC=C)ccc2O)c1 was tested. Which IC50 did it give?
Its IC50 is 68.3 µM.
